Laboratory results published in ChEMBL document CHEMBL1127143, “New -lactam homologs of penems” (1993).
Converted amounts (≈) assume the structure as drawn.

Legend:
actinomadura species = experiment: Compound was tested for percent inhibition of D,D - Carboxypeptidase from Actinomadura sp. R39 at 100 uM concentration
Staphylococcus aureus = experiment: Minimum inhibitory concentration for the antibacterial activity against Staphylococcus aureus; format: functional

inhibition (actinomadura species): 15%
MIC (Staphylococcus aureus): 320 µg/mL (≈ 845 µM)
Structure (SMILES): CCSC1=C(C(=O)O)N2C(=O)C(NC(=O)Cc3ccccc3)CC2S1 (configuration not stated)
